17 compounds from patent US20250320213A1, “Nitrogen-Containing Heterocyclic Compounds” (Pfizer Inc., priority 2024, published 2025) can be followed below.

A word on the EC50: it is the concentration at which the effect is half-maximal. As usually defined, the IC50 is the concentration that gives 50% inhibition. The low end stands for greater potency, the high end for weaker potency.

The target of one test is T1, STAT6 (Homo sapiens, UniProt P42226).
T1 construct: stably transfected HaCaT keratinocyte cell line, which expresses NanoLuc luciferase reporter gene under the transcriptional control of the STAT6 responsive promoter; endogenous in cells; host or cells: HaCaT keratinocyte reporter cell line (stably transfected with a NanoLuc reporter)
T1 sequence (P42226 1-847): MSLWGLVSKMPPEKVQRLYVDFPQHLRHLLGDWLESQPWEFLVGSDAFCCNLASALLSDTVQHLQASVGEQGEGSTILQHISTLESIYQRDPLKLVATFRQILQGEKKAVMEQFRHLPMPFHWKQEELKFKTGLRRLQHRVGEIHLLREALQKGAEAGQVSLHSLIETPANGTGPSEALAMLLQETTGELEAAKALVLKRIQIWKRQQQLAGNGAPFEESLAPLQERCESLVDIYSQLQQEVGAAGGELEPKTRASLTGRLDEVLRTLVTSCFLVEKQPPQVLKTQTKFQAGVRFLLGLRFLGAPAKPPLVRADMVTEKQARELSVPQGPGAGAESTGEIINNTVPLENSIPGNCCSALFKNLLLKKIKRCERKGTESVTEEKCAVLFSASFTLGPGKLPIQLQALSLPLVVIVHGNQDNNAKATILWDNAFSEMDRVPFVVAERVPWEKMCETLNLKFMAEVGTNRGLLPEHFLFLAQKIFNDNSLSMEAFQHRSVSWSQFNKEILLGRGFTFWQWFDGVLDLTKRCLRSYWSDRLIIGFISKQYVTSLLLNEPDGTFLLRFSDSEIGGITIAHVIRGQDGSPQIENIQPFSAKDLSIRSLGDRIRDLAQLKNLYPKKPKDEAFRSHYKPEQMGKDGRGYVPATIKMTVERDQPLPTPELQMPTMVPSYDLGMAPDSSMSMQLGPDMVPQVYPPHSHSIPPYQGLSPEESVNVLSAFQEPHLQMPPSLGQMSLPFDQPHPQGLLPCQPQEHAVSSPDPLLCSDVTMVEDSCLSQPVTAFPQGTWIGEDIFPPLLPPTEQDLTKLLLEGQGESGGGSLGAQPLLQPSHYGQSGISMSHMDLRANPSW
The test is described as follows: STAT6 Reporter Luciferase Assay (IL-13 stimulated HaCaT keratinocyte NanoLuc reporter cells). It counts as cell-based. To be noted: IL-13 stimulated HaCaT STAT6 NanoLuc reporter cells; read-out: Reporter EC50. In a few lines: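 Luminescence from a NanoLuc reporter driven by the STAT6-responsive IL-13Ra2 promoter in HaCaT keratinocytes serves as the read-out. Compounds are given 2 h before a 4 h stimulation with 0.12 nM IL-13.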

The test system of test [1] is CCL17 secretion in peripheral human whole blood. The experiment in a line: Human Whole Blood (HWB) CCL17 TR-FRET Assay (IL-13 stimulated CCL17 secretion). In kind it is cell-based. The conditions noted are these: Homo sapiens, 48 h, human whole blood. In a few lines: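 TR-FRET sandwich immunoassay (665/615 nm ratio) read CCL17 in serum from heparinized whole blood after 16 h RT detection. Blood was exposed to compound for 2 h at 37 °C, then to 10 ng/mL IL-13 (final) for 48 h. IC50 from 11-point, 3-fold titrations in duplicate.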
A general note: In TR-FRET formats the signal depends on donor and acceptor labels being close together.

As to `Cc1c[nH]c(-c2ccc(CNC(=O)c3nn(C(C)C)c4c3CN(c3ccc(N5CCOC5=O)cn3)C[C@@H]4C)cc2)n1` [Example 518, (S)-1-isopropyl-7-methyl-N-(4-(4-methyl-1H-imidazol-2-yl)benzyl)-5-(5-(2-oxooxazolidin-3-yl)pyridin-2-yl)-4,5,6,7-tetrahydro-1H-pyrazolo[4,3-c]pyridine-3-carboxamide], the EC50 at STAT6 was 2 nM. The compound also yielded an IC50 in test [1] (IL-13 stimulated) of 71 nM.

With `Cc1c[nH]c(-c2ccc(CNC(=O)c3nn(C(C)C)c4c3CN(c3ncc(N5CCOC5=O)cn3)C[C@@H]4C)cc2)n1` [Example 519, (S)-1-isopropyl-7-methyl-N-(4-(4-methyl-1H-imidazol-2-yl)benzyl)-5-(5-(2-oxooxazolidin-3-yl)pyrimidin-2-yl)-4,5,6,7-tetrahydro-1H-pyrazolo[4,3-c]pyridine-3-carboxamide], on STAT6, the EC50 was 8 nM. Besides, the IC50 in test [1] (IL-13 stimulated) stood at 219 nM.

Turning to `CNC(=O)Nc1ccc(CNC(=O)c2nn(C(C)C)c3c2CN(c2ccc(N4CCOC4=O)cn2)C[C@@H]3C)cc1` [Example 520, (S)-1-isopropyl-7-methyl-N-(4-(3-methylureido)benzyl)-5-(5-(2-oxooxazolidin-3-yl)pyridin-2-yl)-4,5,6,7-tetrahydro-1H-pyrazolo[4,3-c]pyridine-3-carboxamide], the EC50 at STAT6 amounted to 1 nM. This compound yielded an IC50 in test [1] (IL-13 stimulated) of 22 nM.

Turning to `CNC(=O)Nc1ccc(CNC(=O)c2nn(C(C)C)c3c2CN(c2ccc(-n4c(C)nn(C)c4=O)cn2)C[C@@H]3C)cc1` [Example 521, (S)-5-(5-(1,3-dimethyl-5-oxo-1,5-dihydro-4H-1,2,4-triazol-4-yl)pyridin-2-yl)-1-isopropyl-7-methyl-N-(4-(3-methylureido)benzyl)-4,5,6,7-tetrahydro-1H-pyrazolo[4,3-c]pyridine-3-carboxamide], the EC50 on STAT6 was 2 nM. This compound also registered an IC50 in test [1] (IL-13 stimulated) of 34 nM.

`CC(C)n1nc(C(=O)NCc2ccc(NC(=O)N3CCNCC3)cc2)c2c1[C@@H](C)CN(c1ccc(C(=O)N(C)C)cc1)C2` [Example 525, (S)-5-(4-(dimethylcarbamoyl)phenyl)-1-isopropyl-7-methyl-N-(4-(piperazine-1-carboxamido)benzyl)-4,5,6,7-tetrahydro-1H-pyrazolo[4,3-c]pyridine-3-carboxamide]: the EC50 at STAT6 came to 2 nM. Besides, it took 7 nM to reach half-maximal inhibition in test [1] (IL-13 stimulated) (IC50).

Turning to `CNC(=O)Nc1ccc(CNC(=O)c2n[nH]c3c2CN(c2ccc(C(=O)N(C)C)cn2)CC3)cc1` [Example 526, 5-(5-(dimethylcarbamoyl)pyridin-2-yl)-N-(4-(3-methylureido)benzyl)-4,5,6,7-tetrahydro-1H-pyrazolo[4,3-c]pyridine-3-carboxamide], at STAT6, the EC50 worked out at 4010 nM. In test [1] (IL-13 stimulated), 2040 nM corresponded to half-maximal inhibition (IC50).

For the compound `CC(C)n1nc(C(=O)NCc2ccc(NC(=O)N(C)C)cc2)c2c1[C@@H](C)CN(c1ccc(N3CCCC3=O)cn1)C2` [Example 530, (S)—N-(4-(3,3-Dimethylureido)benzyl)-1-isopropyl-7-methyl-5-(5-(2-oxopyrrolidin-1-yl)pyridin-2-yl)-4,5,6,7-tetrahydro-1H-pyrazolo[4,3-c]pyridine-3-carboxamide], the EC50 on STAT6 was 0.2 nM. In test [1] (10 ng/mL IL13, 48 hours), this compound returned an IC50 of 6 nM.

On to `CC(C)n1nc(C(=O)NCc2ccc(NC(=O)N(C)C)cn2)c2c1C[C@H](C)N(c1ncc(C(=O)N(C)C)cn1)C2` [Example 533, (S)-5-(5-(dimethylcarbamoyl)pyrimidin-2-yl)-N-((5-(3,3-dimethylureido)pyridin-2-yl)methyl)-1-isopropyl-6-methyl-4,5,6,7-tetrahydro-1H-pyrazolo[4,3-c]pyridine-3-carboxamide], for which, at STAT6, the EC50 is 5 nM. The compound further came in with an IC50 in test [1] (10 ng/mL IL13, 48 hours) of 18 nM.

For the compound `CNC(=O)c1ccc(CNC(=O)c2nn(C(C)C)c3c2CN(c2ncc(C(=O)N(C)C)cn2)[C@@H](C)C3)cc1` [Example 534, (S)-5-(5-(dimethylcarbamoyl)pyrimidin-2-yl)-1-isopropyl-6-methyl-N-(4-(methylcarbamoyl)benzyl)-4,5,6,7-tetrahydro-1H-pyrazolo[4,3-c]pyridine-3-carboxamide], the EC50 at STAT6 came to 33 nM. In test [1] (10 ng/mL IL13, 48 hours), this compound yielded an IC50 of 155 nM.

Take `CC(C)n1nc(C(=O)NCc2ccc(NC(=O)N(C)C)cn2)c2c1C[C@H](C)N(c1ccc(C(=O)N(C)C)cn1)C2` [Example 535, (S)-5-(5-(dimethylcarbamoyl)pyridin-2-yl)-N-((5-(3,3-dimethylureido)pyridin-2-yl)methyl)-1-isopropyl-6-methyl-4,5,6,7-tetrahydro-1H-pyrazolo[4,3-c]pyridine-3-carboxamide]: the EC50 on STAT6 stood at 5 nM. In test [1] (10 ng/mL IL13, 48 hours), this compound yielded an IC50 of 13 nM.

With `CC(C)n1nc(C(=O)NCc2ccc(-c3ncc[nH]3)cc2)c2c1C[C@H](C)N(c1ccc(C(=O)N(C)C)cn1)C2` [Example 536, (S)-N-(4-(1H-imidazol-2-yl)benzyl)-5-(5-(dimethylcarbamoyl)pyridin-2-yl)-1-isopropyl-6-methyl-4,5,6,7-tetrahydro-1H-pyrazolo[4,3-c]pyridine-3-carboxamide], at STAT6, the EC50 was 4 nM. The compound further displayed an IC50 in test [1] (10 ng/mL IL13, 48 hours) of 31 nM.

Turning to `CNC(=O)c1ccc(CNC(=O)c2nn(C(C)C)c3c2CN(c2ccc(C(=O)N(C)C)cn2)[C@@H](C)C3)cc1` [Example 540, (S)-5-(5-(dimethylcarbamoyl)pyridin-2-yl)-1-isopropyl-6-methyl-N-(4-(methylcarbamoyl)benzyl)-4,5,6,7-tetrahydro-1H-pyrazolo[4,3-c]pyridine-3-carboxamide], the EC50 at STAT6 was found to be 27 nM. Further, the IC50 in test [1] (10 ng/mL IL13, 48 hours) is 76 nM.

Turning to `CCn1nc(C(=O)NCc2ccc(NC(=O)N(C)C)cc2)c2c1C1(CC1)CN(c1ccc(C(=O)N(C)C)cn1)C2` [Example 555, 5′-(5-(dimethylcarbamoyl)pyridin-2-yl)-N-(4-(3,3-dimethylureido)benzyl)-1′-ethyl-1′,4′,5′,6′-tetrahydrospiro[cyclopropane-1,7′-pyrazolo[4,3-c]pyridine]-3′-carboxamide], the EC50 at STAT6 stood at 5 nM. For the same compound, the midpoint of inhibition in test [1] (10 ng/mL IL13, 48 hours), the IC50, lay at 52 nM.

For the compound `CC(C)n1nc(C(=O)NCc2ccc(NC(N)=O)cc2)c2c1[C@@H](C)CN(c1ncc(-c3nccn3C)cn1)C2` [Example 562, (S)-1-isopropyl-7-methyl-5-(5-(1-methyl-1H-imidazol-2-yl)pyrimidin-2-yl)-N-(4-ureidobenzyl)-4,5,6,7-tetrahydro-1H-pyrazolo[4,3-c]pyridine-3-carboxamide], the EC50 at STAT6 was 3 nM. The IC50 in test [1] (10 ng/mL IL13, 48 hours) was found to be 8 nM.

Consider `CC(C)n1nc(C(=O)NCc2ccc(NC(=O)N3CCNCC3)c(F)c2)c2c1[C@@H](C)CN(c1ccc(C(=O)N(C)C)cc1)C2` [Example 566, (S)-5-(4-(dimethylcarbamoyl)phenyl)-N-(3-fluoro-4-(piperazine-1-carboxamido)benzyl)-1-isopropyl-7-methyl-4,5,6,7-tetrahydro-1H-pyrazolo[4,3-c]pyridine-3-carboxamide], for which, on STAT6, the EC50 came out at 2 nM. The IC50 in test [1] (10 ng/mL IL13, 48 hours) amounted to 15 nM.

Consider `CC(C)n1nc(C(=O)NCc2ccc(NC(=O)N3CCCN(C)CC3)cc2)c2c1[C@@H](C)CN(c1ccc(C(=O)N(C)C)cc1)C2` [Example 567, (S)-5-(4-(Dimethylcarbamoyl)phenyl)-1-isopropyl-7-methyl-N-(4-(4-methyl-1,4-diazepane-1-carboxamido)benzyl)-4,5,6,7-tetrahydro-1H-pyrazolo[4,3-c]pyridine-3-carboxamide], for which, on STAT6, the EC50 came out at 1 nM. Moreover, in test [1] (10 ng/mL IL13, 48 hours), 13 nM corresponded to half-maximal inhibition (IC50).

`CN[C@@H]1CCCN(C(=O)Nc2ccc(CNC(=O)c3nn(C(C)C)c4c3CN(c3ccc(C(=O)N(C)C)cc3)C[C@@H]4C)cc2F)C1` [Example 568, (S)-5-(4-(dimethylcarbamoyl)phenyl)-N-(3-fluoro-4-((R)-3-(methylamino)piperidine-1-carboxamido)benzyl)-1-isopropyl-7-methyl-4,5,6,7-tetrahydro-1H-pyrazolo[4,3-c]pyridine-3-carboxamide]: the EC50 at STAT6 was found to be 2 nM. For the same compound, in test [1] (10 ng/mL IL13, 48 hours), 13 nM corresponded to half-maximal inhibition (IC50).
